Entries after “also recorded” stand apart in the source; their conditions may differ.
Assay: Pharmacological function of triterpenes (earlier experiments and reports)
Settings: inventors' experiments, no data given

## CC1(C)CC[C@]2(C(=O)O)CC[C@]3(C)C(=CC[C@@H]4[C@@]5(C)CC[C@H](O)C(C)(C)[C@@H]5CC[C@]43C)[C@@H]2C1 [oleanolic acid, Oleanolic acid]
  Pharmacological function of oleanolic acid from sugar beet: antibiosis to a tumor and hepatitis; also recorded: cariostatic (insoluble glucanynthesis inhibition)

From US5314877A, “Water-soluble pentacyclic triterpene composition and method for producing the same” (Hokkaido Sugar Co., Ltd., priority 1990, dated 1994)
